Test results as given in PubChem BioAssay AID493240 (Broad Institute, 2011).

The molecules below were run on SK-MEL-5 viability, ATP luminescence (CellTiter-Glo), 24 h (assay: cytotoxicity in parental SK-MEL-5 melanoma cells – cell-based, CellTiter-Glo, cherry-picked, set 3, orthogonal assay for MITF inhibitor project, dose response (AID 493240)).
Work on `C=CCNC1=C(Cl)C(=O)c2ccccc2C1=O` yielded an AC50 of 7.68 µM. For `COCCCn1[nH]c2c3c(ccc2c1=O)C(=O)c1ccccc1C3=O`, the AC50 was 16.5 µM. For `COc1cc(NC(=O)COc2ccccc2[N+](=O)[O-])ccc1NC(=O)c1cccs1`, the AC50 was 26.4 µM. `Cc1ccc(-n2cc(CNCCCn3cccn3)c(-c3cccc(C)c3)n2)cc1` was tested, and the AC50 was 20.1 µM. With `CC1CN(C(=O)CCC(=O)NCCCN2CCC(Cc3ccccc3)CC2)c2cc(Cl)ccc2O1` (stereo not given) the AC50 was 6.98 µM. Molecule `Cc1ccc(S(=O)(=O)N2CCCCC2)cc1NC(=O)Cn1ncc(Cl)c(Cl)c1=O` has an AC50 of 19.3 µM. With `Cc1cc(C)cc(NS(=O)(=O)c2ccc3c(c2)c(=O)n(C)c(=O)n3C)c1` the AC50 was 25.5 µM. Molecule `Cc1ccc(-c2nc(C(=O)NCCCN(C)C)cc3c2[nH]c2ccccc23)cc1` has an AC50 of 18.8 µM. Molecule `CC(C)C(CCNC1CCN(C)CC1)c1ccc(Cl)cc1` (stereo not given) has an AC50 of 23.1 µM. Work on `N=c1n(Cc2ccc(Cl)cc2)c2ccccc2n1CC(O)COc1ccccc1` (stereo not given) yielded an AC50 of 19.1 µM. `CN1CCC(N(C)C(=O)/C=C/c2cn(-c3ccccc3)nc2-c2cccs2)CC1` was tested, and the AC50 was 20.1 µM. With `COc1ccc(CNCCC(c2ccc(F)cc2)c2ccc(OC)cc2)cc1` (stereo not given) the AC50 was 16.6 µM. `O=C(/C=C/Nc1ccccc1Br)c1ccccn1` gave an AC50 of 21.9 µM. With `CC1CCCC(NCC(O)COC(c2ccc(F)cc2)c2ccc(F)cc2)C1C` (stereo not given) the AC50 was 20.9 µM. Molecule `COc1ccc(C(=O)/C=C/C(=O)N(CC(=O)NC2CCCCC2)Cc2cccs2)c(O)c1` has an AC50 of 20.5 µM. With `O=C(Cn1ncc(Cl)c(Cl)c1=O)N1CCc2ccccc21` the AC50 was 22.6 µM. With `O=[N+]([O-])c1ccc(S(=O)(=O)CC(CN2CCCCC2)N2CCCCC2)cc1` (stereo not given) the AC50 was 29.8 µM. `N#CCc1ccc(NC(=O)/C=C/c2ccc([N+](=O)[O-])o2)cc1` showed an AC50 of 31.2 µM. `COc1cc(NC(=O)c2[nH]cnc2C(N)=O)cc(C(=O)Nc2cccc(C(F)(F)F)c2)c1` showed an AC50 of 18.2 µM. `COC(=O)C1=C(C)N(Cc2ccccc2)C(=NCc2ccccc2)N[C@H]1c1ccccc1` showed an AC50 of 26.8 µM. `COc1ccc(C(=O)/C=C/C(=O)N(CC(=O)NC2CCCCC2)Cc2ccccc2OC)c(O)c1` showed an AC50 of 9.67 µM. `C=CCn1c(C)cc(C2=NNC(=NCC)SC2)c1C` showed an AC50 of 12.9 µM. For `Cc1ccc(C(=O)N/C(=C\c2ccc(-c3ccc(Br)cc3)o2)C(=O)NCCCN(C)C)cc1`, the AC50 was 17.1 µM. With `c1ccc2cc3c(NCCN4CCOCC4)ccnc3cc2c1` the AC50 was 3.68 µM. `Cc1ccc(NC2=C(Cl)C(=O)c3ccccc3C2=O)cc1` gave an AC50 of 9.83 µM. In the case of `COC1=C(Nc2ccc(O)cc2)C(=O)c2ccccc2C1=O`, the AC50 is reported as 8.43 µM. `Cc1ccc(C(O)(c2ccc(C)c(C)c2)C2CN3CCC2CC3)cc1C` (stereo not given) showed an AC50 of 17.1 µM. `CCOC(=O)c1ccc2c(c1)n(CC)c(/C=C/N(C)c1ccccc1)[n+]2CC` was tested, and the AC50 was 13.3 µM. `CS(=O)(=O)c1nc(-c2ccc(F)cc2)cc(C(F)(F)F)n1` was tested, and the AC50 was 20.3 µM. Molecule `CC1CCC/C=C/C(=O)c2c(O)cc(O)cc2CC(=O)O1` (stereo not given) has an AC50 of 31.7 µM. In the case of `CCN1CCN(c2ccc(S(=O)(=O)N3CCCCC3)cc2NC(=O)/C=C/c2cccc(OC)c2OC)CC1`, the AC50 is reported as 24.7 µM. Molecule `CC1(C)Cc2ccccc2C2=NNC(=O)C2=N1` has an AC50 of 8.54 µM. In the case of `CC(C)(C)c1ccc(-c2cn(-c3ccc(Br)cc3)c3[n+]2CCCS3)cc1`, the AC50 is reported as 11.4 µM. `O=C(Nc1ccc(S(=O)(=O)NC2=NCCCCC2)cc1)c1ccc([N+](=O)[O-])s1` was tested, and the AC50 was 23 µM. `COc1cc(/C=N/N=C(N)N)ccc1OCc1ccc(Cl)cc1` showed an AC50 of 18.8 µM. `Cc1cc(C(C)(C)C)cc(C)c1Cn1c2[n+](c3ccc(C(F)(F)F)cc31)CCCCC2` was tested, and the AC50 was 16 µM. Work on `COC(=O)c1ccc2c(c1O)C(=O)c1ccccc1C2=O` yielded an AC50 of 3.74 µM. `CS(=O)(=O)c1ccc(S(=O)CC(=O)OCc2ccccc2)c([N+](=O)[O-])c1` (stereo not given) gave an AC50 of 28.3 µM. In the case of `COC1=C(c2ccccc2)C(=O)c2ccccc2C1=O`, the AC50 is reported as 9.91 µM. For `CCCCn1c(=N)n(CC(=O)c2ccc(Br)s2)c2ccccc21`, the AC50 was 18.5 µM. `CCN(CC)CCn1nc2c3c(cccc3c1=O)-c1ccccc1-2` was tested, and the AC50 was 20.3 µM. `CC(C)(c1ccccc1)c1ccc(OCC(O)CNC2CCN(Cc3ccccc3)CC2)cc1` (stereo not given) gave an AC50 of 19.9 µM. `COCCN(CC(=O)NC1CCCCC1)C(=O)/C=C/C(=O)c1ccc(OC)cc1O` was tested, and the AC50 was 10.5 µM. With `O=c1c(Cl)c2oc3ccccc3nc-2c2ccccc12` the AC50 was 5.67 µM. Molecule `CCCN1CCC(NCc2cn(C)nc2-c2ccc(Oc3ccccc3)cc2)CC1` has an AC50 of 22.3 µM. `COc1ccccc1NS(=O)(=O)c1cccc(C(=O)N/N=C/c2ccc([N+](=O)[O-])o2)c1` was tested, and the AC50 was 17.3 µM. `Cc1cc2oc3ccc(NCCC4CCCN4C)cc3c(=O)c2cc1C` (stereo not given) gave an AC50 of 17.6 µM. `CC(=O)Nc1sc(C)c(C)c1C(=O)OCC(=O)N(CC(C)C)c1c(N)n(Cc2ccccc2)c(=O)[nH]c1=O` was tested, and the AC50 was 8.38 µM. Work on `O=C(N/N=C\c1ccc([N+](=O)[O-])s1)c1cncc(Br)c1` yielded an AC50 of 21 µM. For `CN(C)S(=O)(=O)c1ccc(-c2csc(N/N=C/c3ccco3)n2)cc1`, the AC50 was 16.2 µM. `Nc1nc2ccccc2n1/N=C/c1ccc([N+](=O)[O-])s1` showed an AC50 of 25.8 µM. `O=C1Nc2cc(C(=O)NCCN3CCCCCC3)ccc2S/C1=C\c1ccccc1` showed an AC50 of 19.2 µM. Work on `Cc1cc(C)cc(NC(=O)c2ccc([N+](=O)[O-])o2)c1` yielded an AC50 of 27.7 µM. Molecule `O=C(C#Cc1ccccc1)c1cccc([N+](=O)[O-])c1` has an AC50 of 26.2 µM. `O=C(Nc1ccccc1)NN(C(=O)CCl)c1ccccc1` gave an AC50 of 28.7 µM.
